Results taken from patent publication US11241507B2, “Near-infrared chemiluminescent probes for in-vivo imaging” (RAMOT AT TEL-AVIV UNIVERSITY LTD., priority 2017, dated 2022).

How the values were obtained:
[1] = Chemiluminescence properties of NIR luminophores under physiological conditions; type: physicochemical; settings: for ΦCL (chemiluminescence efficiency) / λ maxCL (maximal chemiluminescence emission): physiological conditions
Protocol: All reactions requiring anhydrous conditions were performed under an argon atmosphere. All reactions were carried out at room temperature unless stated otherwise. Chemicals and solvents were either A.R. grade or purified by standard techniques. TLC: silica gel plates Merck 60 F254: compounds were visualized by irradiation with UV light. Column chromatography (FC): silica gel Merck 60 (particle size 0.040-0.063 mm), eluent given in parentheses. RP-HPLC: C18 5u, 250×4.6 mm, eluent given in parentheses. Preparative RP-HPLC: C18 5u, 250×21 mm, eluent given in parentheses. ^1H-NMR spectra were recorded using Bruker Avance operated at 400 MHz. ^13C-NMR spectra were recorded using Bruker Avance operated at 100 MHz. Chemical shifts were reported in ppm on the δ scale relative to a residual solvent (CDCl3: δ=7.26 for ^1H-NMR and 77.16 for ^13C-NMR, DMSO-d6: δ=2.50 for ^1H-NMR and 39.52 for ^13C-NMR). Mass spectra were measured on Waters Xevo TQD. Fluorescence and chemiluminescence were recorded on Molecular Devices Spectramax i3x. Fluorescence quantum yield was determined using Hamamatsu Quantaurus-QY. All reagents, including salts and solvents, were purchased from Sigma-Aldrich. Light irradiation for photochemical reactions: LED PAR38 lamp (19 W, 3000K).
Next, we incubated our luminophores under physiological conditions and evaluated their properties. […] As expected, the chemiluminescence emission spectra correlate with the fluorescence spectra of their corresponding decomposition benzoate esters products. […] This difference is attributed to the reduced pKa of Luminophore 2, which accelerate the generation of enriched phenolate population that spontaneously undergoes the chemiexcitation process. The chemiluminescence efficiency of Luminophores 1 and 2 was calculated to be 0.82% and 1.12% respectively. These outstanding results encouraged us to investigate the imaging features of our NIR luminophores to serve as a reporter both in-vitro and in-vivo bioassays.

β-galactosidase = assay: Chemiluminescence kinetic profile of probes in presence and absence of β-galactosidase; type: biochemical; settings: 37° C.
Protocol: FIGS. […] (1A); chemiluminescence imaging of Probe 1a [5 μM] in HEK293 cells (1B); and quantification of signal intensities evolving from HEK293 cells (1C).
(§1) The spectral performance of Probe 1a was evaluated by measuring the chemiluminescent signal over time while its incubation took place under physiological conditions in the presence and absence of β-galactosidase (FIG. 1A). […] The emission spectra of 1a overlaps with its parent Luminophore 1 as expected. Next, we investigated the feasibility of Probe 1a to image the over expression of endogenous β-galactosidase in HEK293 cells transfected with the LacZ gene. We incubated Probe 1a with HEK293-LacZ and HEK293-wt cells. […] The chemiluminescence signal was quantified as depicted in FIG. 1C.
The study in which the feasibility of Probe 1a to image the over expression of endogenous β-galactosidase in HEK293 cells transfected with the LacZ gene was repeated using Probe 3a, corresponding to Luminophore 3 wherein the phenol is masked with a β-galactosidase substrate as the responsive protecting group, and a short polyethylene-glycol ester is introduced instead of the […] acid residue, considering that cell permeability is reduced by negatively charged species.

[2] = biological target: T1, β-galactosidase in HEK293 cells transfected with the LacZ gene (Escherichia coli, UniProt P00722); assay: Chemiluminescence imaging of HEK293-LacZ versus HEK293-wt cells; type: cell-based
T1 construct: expressed in transfected cells; host or cells: HEK293 (HEK293-LacZ)
Protocol: FIGS. 1A-1C show the chemiluminescence kinetic profiles of probes 1a [10 μM] in PBS, pH 7.4, in the presence and absence of 1.5 units/mL β-galactosidase at 37° C. (1A); chemiluminescence imaging of Probe 1a [5 μM] in HEK293 cells (1B); and quantification of signal intensities evolving from HEK293 cells (1C).
Images were obtained following 20 minutes incubation with cell culture medium containing Probe 3a (5 μM), and were recorded on BioSpace Lab PhotonIMAGER™.
as §1
In order to investigate the feasibility of Probe 3a to monitor the enzymatic activity of β-galactosidase in vitro, the probe [1 μM] was incubated for 30 minutes with transfected HEK293-LacZ cell that overexpress the enzyme β-galactosidase, and under the same conditions with HEK293-wt cell as a control. The chemiluminescent signal was collected for 4 hours from the samples and quantified as depicts in FIG. 3.

[3] = Chemiluminescence kinetic profile of probe in presence and absence of H2O2; settings: probe 10 μM in serum, presence vs absence of H2O2 50 μM
Protocol: (§2) FIGS. 4A-4C show the chemiluminescent kinetic profile of Probe 2a [10 μM] in serum, in the presence and absence of H2O2[50 μM] (4A); in-vivo imaging of endogenous H2O2 in the peritoneal cavity of mice during an LPS-induced inflammatory response, using probes 2a and 2b. Images of mice were recorded on BioSpace Lab PhotonIMAGER™. Group A: 1 mL of 0.1 mg/mL LPS was injected into the peritoneal cavity of mice, followed 4 h later by an IP injection of Probe 2a [100 μM, 100 μL in PBS]. Group B: 1 mL of 0.1 mg/mL LPS was injected into the peritoneal cavity of mice, followed 4 h later by an IP injection of Probe 2b [100 μM, 100 μL in PBS]. Group C: 1 mL PBS 7.4 was injected into the peritoneal cavity of mice, followed 4 h later by an IP injection of Probe 2a [100 μM, 100 μL in PBS 7.4] (4B); and quantification of signal intensities evolved from each group of mice (4C).
At first, we wanted evaluated the ability of Probe 2a to detect H2O2, therefore we incubated Probe 2a in the presence and absence of H2O2 and monitored the emitted light.

endogenous H2O2 = assay: In-vivo imaging of endogenous H2O2 in peritoneal cavity of mice, LPS-induced peritonitis
Protocol: as §2
Since we established that our luminophores can serve as chemiluminescence reporter for in-vitro imaging we wanted to test their ability to image a whole animal. We tested the ability of Probe 2a to detect endogenous H2O2 by using a mouse model peritonitis that was induced by intraperitoneal injection of lipopolysaccharide (LPS). […] Three groups of mice were applied: (A) mice that were treated with LPS followed by the injection of probe 2a; (B) mice that were treated with LPS followed by the injection of Probe 2b; and (C) mice that were treated with vehicle control (PBS 7.4) followed by the injection of Probe 2a.
After 1 minute, a ratio of 19 was observed comparing the signal intensities of LPS treated and non-LPS treated mice which were injected with Probe 2a (groups A and C).

[4] = probe 1 μM, 30 minutes incubation

T1 sequence (P00722 whole entry): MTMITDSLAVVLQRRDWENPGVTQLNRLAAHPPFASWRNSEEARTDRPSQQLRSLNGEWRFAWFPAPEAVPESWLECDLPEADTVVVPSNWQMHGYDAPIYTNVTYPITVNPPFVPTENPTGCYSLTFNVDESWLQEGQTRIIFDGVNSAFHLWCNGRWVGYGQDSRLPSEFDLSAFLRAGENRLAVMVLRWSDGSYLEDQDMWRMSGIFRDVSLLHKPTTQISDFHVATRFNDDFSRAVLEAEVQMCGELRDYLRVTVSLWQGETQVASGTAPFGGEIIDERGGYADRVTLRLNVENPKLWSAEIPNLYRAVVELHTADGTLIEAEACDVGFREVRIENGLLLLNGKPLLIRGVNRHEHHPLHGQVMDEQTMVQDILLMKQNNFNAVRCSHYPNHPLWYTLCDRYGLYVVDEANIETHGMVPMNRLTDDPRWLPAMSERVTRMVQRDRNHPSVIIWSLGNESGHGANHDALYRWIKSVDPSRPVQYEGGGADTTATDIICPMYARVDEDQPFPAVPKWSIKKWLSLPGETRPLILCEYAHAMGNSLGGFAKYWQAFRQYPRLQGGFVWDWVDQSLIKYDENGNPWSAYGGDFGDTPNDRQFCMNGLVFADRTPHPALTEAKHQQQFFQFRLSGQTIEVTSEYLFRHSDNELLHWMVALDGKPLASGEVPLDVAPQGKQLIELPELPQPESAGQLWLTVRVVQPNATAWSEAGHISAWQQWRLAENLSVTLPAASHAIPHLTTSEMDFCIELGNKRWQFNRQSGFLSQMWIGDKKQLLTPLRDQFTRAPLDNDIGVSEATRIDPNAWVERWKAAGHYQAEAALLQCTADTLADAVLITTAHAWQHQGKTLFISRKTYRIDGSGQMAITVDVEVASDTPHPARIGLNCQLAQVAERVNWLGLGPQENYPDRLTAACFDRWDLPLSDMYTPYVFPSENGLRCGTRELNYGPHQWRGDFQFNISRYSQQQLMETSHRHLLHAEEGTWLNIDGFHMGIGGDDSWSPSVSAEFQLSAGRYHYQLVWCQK

## COC1(c2cc(O)ccc2/C=C/C2=CC(=C(C#N)C#N)c3ccccc3O2)OOC12C1CC3CC(C1)CC2C3 (stereo not drawn) [Luminophore 1]
[1]
  pKa: ~8.8
  ΦCL (chemiluminescence efficiency): 0.82%
  λ maxCL (maximal chemiluminescence emission): 660 nm

## COC1(c2cc(O)c(/C=C/C(=O)O)cc2/C=C/C2=CC(=C(C#N)C#N)c3ccccc3O2)OOC12C1CC3CC(C1)CC2C3 (stereo not drawn) [Luminophore 2]
[1]
  pKa: 7.35
  ΦCL (chemiluminescence efficiency): 1.12%
  λ maxCL (maximal chemiluminescence emission): 690 nm

## COC1(c2cc(O)c(/C=C/C(=O)O)cc2/C=C/C2=C(C#N)C(=C(C#N)C#N)OC2(C)C)OOC12C1CC3CC(C1)CC2C3 (stereo not drawn) [Luminophore 3]
[1]
  pKa: 7.71
  ΦCL (chemiluminescence efficiency): 0.70%
  λ maxCL (maximal chemiluminescence emission): 670 nm

## COC1(c2ccc(/C=C/C3=CC(=C(C#N)C#N)c4ccccc4O3)c(O)c2Cl)OOC12C1CC3CC(C1)CC2C3 (stereo not drawn) [Luminophore 4]
[1]
  pKa: 6.72
  ΦCL (chemiluminescence efficiency): 0.95%
  λ maxCL (maximal chemiluminescence emission): 730 nm

## COC1(c2cc(O[C@@H]3OC(CO)[C@H](O)C(O)C3O)ccc2/C=C/C2=CC(=C(C#N)C#N)c3ccccc3O2)OOC12C1CC3CC(C1)CC2C3 (stereo partly drawn) [Probe 1a]
β-galactosidase; probe 10 μM in PBS pH 7.4, presence vs absence of 1.5 units/mL β-galactosidase
  signal-to-noise ratio: 17
[2]; HEK293-LacZ vs HEK293-wt, probe 5 μM
  ratio between signal intensities of transfected cells to wild type cells: 14
[2]; probe 5 μM
  chemiluminescent signal in HEK293-LacZ cells: intense chemiluminescent signal
  chemiluminescent signal in HEK293-wt cells: negligible chemiluminescent signal

## COC1(c2cc(B3OC(C)(C)C(C)(C)O3)c(/C=C/C(=O)O)cc2/C=C/C2=CC(=C(C#N)C#N)c3ccccc3O2)OOC12C1CC3CC(C1)CC2C3 (stereo not drawn) [Probe 2a]
[3]
  signal-to-noise ratio: 57
Endogenous H2O2; group A (LPS + Probe 2a) compared with groups B and C
  chemiluminescence signal right after probe injection: efficient chemiluminescence signal
Endogenous H2O2; groups A and B, IP probe 100 μM, 100 μL in PBS, 4 h after LPS
  signal ratio, LPS treated mice injected with Probe 2a vs Probe 2b: 45
Endogenous H2O2; groups A and C, IP probe 100 μM, 100 μL in PBS, 4 h after LPS or PBS, after 1 minute
  ratio of signal intensities, LPS treated vs non-LPS treated mice: 19

## COCCOCCOCCOCCOC(=O)/C=C/c1cc(/C=C/C2=C(C#N)C(=C(C#N)C#N)OC2(C)C)c(C2(OC)OOC23C2CC4CC(C2)CC3C4)cc1OCc1ccc(O[C@@H]2OC(CO)[C@H](O)[C@H](O)C2O)cc1 (stereo partly drawn) [Probe 3a]
β-galactosidase; probe 1 μM in PBS (100 mM) 7.4 with 10% serum, presence vs absence of β-galactosidase 1.5 EU/mL
  signal-to-noise ratio: 43
[2]; HEK293-LacZ vs HEK293-wt, probe 1 μM incubated 30 minutes, signal collected 4 hours
  signal ratio between transfected cells to wild type: 17
[2]; [4]
  chemiluminescent signal in HEK293-LacZ cells: intense chemiluminescent signal
  chemiluminescent signal in HEK293-wt cells: unneglectable chemiluminescent signal
